# Results taken from ChEMBL document CHEMBL1201862, “PubChem BioAssay data set” (2004).
#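 Protocol summary: plate cells (96-well), add compound at 5 concentrations, incubate 48 h, interpolate endpoints linearly. GI50: concentration for 50% inhibition of growth.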 Activity calls are given as the source filed them. Rule as the data show it: active = GI50 up to about 1.1 µM and inactive = higher.
# How the values were obtained:
# Assay in all cases: NCI anticancer screen, dose series, 48 h
# KM12 = test system: KM12
# SN12C = test system: SN12C
# MOLT-4 = test system: MOLT-4
# DU-145 = test system: DU-145
# HCC 2998 = test system: HCC 2998
# SK-MEL-2 = test system: SK-MEL-2
# MDA-MB-231 = test system: MDA-MB-231
# TK-10 = test system: TK-10
# SK-MEL-5 = test system: SK-MEL-5
# M14 = test system: M14
# K562 = test system: K562
# MDA-MB-435 = test system: MDA-MB-435
# MCF7 = test system: MCF7
# U-251 = test system: U-251
# T47D = test system: T47D
# NCI/ADR-RES = test system: NCI/ADR-RES
# NCI-H226 = test system: NCI-H226
# SF-539 = test system: SF-539
# A498 = test system: A498
# SK-OV-3 = test system: SK-OV-3
# SF-268 = test system: SF-268
# SW-620 = test system: SW-620
# SNB-75 = test system: SNB-75
# UO-31 = test system: UO-31
# RPMI-8226 = test system: RPMI-8226
# UACC-257 = test system: UACC-257
# SK-MEL-28 = test system: SK-MEL-28
# BT-549 = test system: BT-549
# RXF 393 = test system: RXF 393
# EKVX = test system: EKVX
# NCI-H460 = test system: NCI-H460
# CAKI-1 = test system: CAKI-1
# A549 = test system: A549
# NCI-H23 = test system: NCI-H23
# MDA-N = test system: MDA-N
# HCT-116 = test system: HCT-116
# HT-29 = test system: HT-29
# HL-60 = test system: HL-60
# Hs-578T = test system: Hs-578T
# LOX IMVI = test system: LOX IMVI
# SNB-19 = test system: SNB-19
# OVCAR-8 = test system: OVCAR-8
# CCRF-CEM = test system: CCRF-CEM
# OVCAR-4 = test system: OVCAR-4
# SR = test system: SR
# Malme-3M = test system: Malme-3M
# UACC-62 = test system: UACC-62
# OVCAR-3 = test system: OVCAR-3
# OVCAR-5 = test system: OVCAR-5
# IGROV-1 = test system: IGROV-1
# HCT-15 = test system: HCT-15
# COLO 205 = test system: COLO 205
# NCI-H522 = test system: NCI-H522
# 786-0 = test system: 786-0
# PC-3 = test system: PC-3
# ACHN = test system: ACHN
# HOP-92 = test system: HOP-92
# HOP-62 = test system: HOP-62
# SF-295 = test system: SF-295
structure (smiles),measurement,setting,value
COC(=O)NN=C(c1ccc(Cl)cc1)c1ccc(Cl)cc1,GI50,KM12,> 100 µM (inactive)
same,GI50,SN12C,> 100 µM (inactive)
same,GI50,MOLT-4,> 100 µM (inactive)
same,GI50,DU-145,80.7 µM (inactive)
same,GI50,HCC 2998,> 100 µM (inactive)
same,GI50,SK-MEL-2,> 100 µM (inactive)
same,GI50,MDA-MB-231,> 100 µM (inactive)
same,GI50,TK-10,54.2 µM (inactive)
same,GI50,SK-MEL-5,> 100 µM (inactive)
same,GI50,M14,> 100 µM (inactive)
same,GI50,K562,> 100 µM (inactive)
same,GI50,MDA-MB-435,> 100 µM (inactive)
same,GI50,MCF7,> 100 µM (inactive)
same,GI50,U-251,> 100 µM (inactive)
same,GI50,T47D,> 100 µM (inactive)
same,GI50,NCI/ADR-RES,> 100 µM (inactive)
same,GI50,NCI-H226,> 100 µM (inactive)
same,GI50,SF-539,93.8 µM (inactive)
same,GI50,A498,17.9 µM (inactive)
same,GI50,SK-OV-3,> 100 µM (inactive)
same,GI50,SF-268,> 100 µM (inactive)
same,GI50,SW-620,> 100 µM (inactive)
same,GI50,SNB-75,87.9 µM (inactive)
same,GI50,UO-31,> 100 µM (inactive)
same,GI50,RPMI-8226,> 100 µM (inactive)
same,GI50,UACC-257,> 100 µM (inactive)
same,GI50,SK-MEL-28,> 100 µM (inactive)
same,GI50,BT-549,80.2 µM (inactive)
same,GI50,RXF 393,22.4 µM (inactive)
same,GI50,EKVX,> 100 µM (inactive)
same,GI50,NCI-H460,> 100 µM (inactive)
same,GI50,CAKI-1,> 100 µM (inactive)
same,GI50,A549,71.1 µM (inactive)
same,GI50,NCI-H23,> 100 µM (inactive)
same,GI50,MDA-N,> 100 µM (inactive)
same,GI50,HCT-116,> 100 µM (inactive)
same,GI50,HT-29,58.6 µM (inactive)
same,GI50,HL-60,> 100 µM (inactive)
same,GI50,Hs-578T,> 100 µM (inactive)
same,GI50,LOX IMVI,> 100 µM (inactive)
same,GI50,SNB-19,> 100 µM (inactive)
same,GI50,OVCAR-8,> 100 µM (inactive)
same,GI50,CCRF-CEM,67.6 µM (inactive)
same,GI50,OVCAR-4,40.3 µM (inactive)
same,GI50,SR,94.2 µM (inactive)
same,GI50,Malme-3M,> 100 µM (inactive)
same,GI50,UACC-62,> 100 µM (inactive)
same,GI50,OVCAR-3,> 100 µM (inactive)
same,GI50,OVCAR-5,> 100 µM (inactive)
same,GI50,IGROV-1,22.9 µM (inactive)
same,GI50,HCT-15,> 100 µM
same,GI50,COLO 205,51.2 µM (inactive)
same,GI50,NCI-H522,> 100 µM (inactive)
same,GI50,786-0,> 100 µM (inactive)
same,GI50,PC-3,> 100 µM (inactive)
COc1cc(C2c3c(ccc4ccccc34)C(=O)C3CCC(=O)N32)cc(OC)c1OC (centres undefined),GI50,ACHN,> 50 µM (inactive)
same,GI50,KM12,> 50 µM (inactive)
same,GI50,SN12C,> 50 µM (inactive)
same,GI50,MOLT-4,> 50 µM (inactive)
same,GI50,DU-145,> 50 µM (inactive)
same,GI50,SK-MEL-2,> 50 µM (inactive)
same,GI50,MDA-MB-231,> 50 µM (inactive)
same,GI50,M14,> 50 µM (inactive)
same,GI50,K562,> 50 µM (inactive)
same,GI50,MDA-MB-435,> 50 µM (inactive)
same,GI50,MCF7,> 50 µM (inactive)
same,GI50,U-251,> 50 µM (inactive)
same,GI50,T47D,> 50 µM (inactive)
same,GI50,NCI/ADR-RES,> 50 µM (inactive)
same,GI50,NCI-H226,> 50 µM (inactive)
same,GI50,SF-539,> 50 µM (inactive)
same,GI50,A498,> 50 µM (inactive)
same,GI50,SK-OV-3,> 50 µM (inactive)
same,GI50,SF-268,> 50 µM (inactive)
same,GI50,SW-620,> 50 µM (inactive)
same,GI50,SNB-75,> 50 µM (inactive)
same,GI50,UO-31,> 50 µM (inactive)
same,GI50,RPMI-8226,46.8 µM (inactive)
same,GI50,UACC-257,> 50 µM (inactive)
same,GI50,SK-MEL-28,> 50 µM (inactive)
same,GI50,BT-549,> 50 µM (inactive)
same,GI50,RXF 393,> 50 µM (inactive)
same,GI50,EKVX,> 50 µM (inactive)
same,GI50,NCI-H460,> 50 µM (inactive)
same,GI50,CAKI-1,> 50 µM (inactive)
same,GI50,A549,> 50 µM (inactive)
same,GI50,NCI-H23,> 50 µM (inactive)
same,GI50,MDA-N,> 50 µM (inactive)
same,GI50,HCT-116,> 50 µM (inactive)
same,GI50,HT-29,> 50 µM (inactive)
same,GI50,HL-60,> 50 µM (inactive)
same,GI50,Hs-578T,> 50 µM (inactive)
same,GI50,HOP-92,> 50 µM (inactive)
same,GI50,HOP-62,> 50 µM (inactive)
same,GI50,SNB-19,> 50 µM (inactive)
same,GI50,OVCAR-8,> 50 µM (inactive)
same,GI50,CCRF-CEM,> 50 µM (inactive)
same,GI50,SF-295,> 50 µM (inactive)
same,GI50,OVCAR-4,> 50 µM (inactive)
same,GI50,SR,48.4 µM (inactive)
same,GI50,UACC-62,> 50 µM (inactive)
same,GI50,OVCAR-3,> 50 µM (inactive)
same,GI50,OVCAR-5,> 50 µM (inactive)
same,GI50,IGROV-1,> 50 µM (inactive)
same,GI50,HCT-15,> 50 µM
same,GI50,COLO 205,> 50 µM (inactive)
same,GI50,NCI-H522,25.5 µM (inactive)
same,GI50,786-0,> 50 µM (inactive)
same,GI50,PC-3,> 50 µM (inactive)
N[C@@H]1CCN(c2c(F)cc3c(=O)c(C(=O)O)cn4c3c2Oc2cc3c(ccc5ccccc53)cc2-4)C1,GI50,ACHN,1.54 µM (inactive)
same,GI50,KM12,5.32 µM (inactive)
same,GI50,SN12C,2.08 µM (inactive)
same,GI50,MOLT-4,0.515 µM (active)
same,GI50,DU-145,3.28 µM (inactive)
same,GI50,SK-MEL-2,5.18 µM (inactive)
same,GI50,MDA-MB-231,4.56 µM (inactive)
same,GI50,TK-10,1.45 µM (inactive)
same,GI50,SK-MEL-5,2.92 µM (inactive)
same,GI50,M14,8.79 µM (inactive)
same,GI50,K562,2.54 µM (inactive)
same,GI50,MDA-MB-435,3.24 µM (inactive)
same,GI50,MCF7,3.13 µM (inactive)
same,GI50,U-251,0.906 µM (active)
same,GI50,T47D,4.56 µM (inactive)
same,GI50,NCI/ADR-RES,> 79.3 µM (inactive)
same,GI50,NCI-H226,6.58 µM (inactive)
same,GI50,SF-539,3.37 µM (inactive)
same,GI50,A498,4.83 µM (inactive)
same,GI50,SW-620,1.41 µM (inactive)
same,GI50,SNB-75,2.89 µM (inactive)
same,GI50,UO-31,5.2 µM (inactive)
same,GI50,RPMI-8226,4.3 µM (inactive)
same,GI50,UACC-257,0.78 µM (active)
same,GI50,SK-MEL-28,> 21.1 µM (inactive)
same,GI50,BT-549,4.03 µM (inactive)
same,GI50,RXF 393,1.64 µM (inactive)
same,GI50,NCI-H460,0.735 µM (active)
same,GI50,CAKI-1,6.27 µM (inactive)
same,GI50,A549,3.29 µM (inactive)
same,GI50,NCI-H23,3.06 µM (inactive)
same,GI50,MDA-N,3.01 µM (inactive)
same,GI50,HCT-116,1.64 µM (inactive)
same,GI50,HT-29,0.585 µM (active)
same,GI50,HL-60,7.14 µM (inactive)
same,GI50,Hs-578T,15.9 µM (inactive)
same,GI50,HOP-92,2.72 µM (inactive)
same,GI50,LOX IMVI,2.34 µM (inactive)
same,GI50,HOP-62,4.82 µM (inactive)
same,GI50,SNB-19,3.3 µM (inactive)
same,GI50,OVCAR-8,1.7 µM (inactive)
same,GI50,CCRF-CEM,0.0482 µM (active)
same,GI50,SF-295,3.68 µM (inactive)
same,GI50,OVCAR-4,4.36 µM (inactive)
same,GI50,SR,0.659 µM (active)
same,GI50,Malme-3M,5.27 µM (inactive)
same,GI50,UACC-62,7.6 µM (inactive)
same,GI50,OVCAR-3,5.73 µM (inactive)
same,GI50,OVCAR-5,13.9 µM (inactive)
same,GI50,IGROV-1,1.82 µM (inactive)
same,GI50,HCT-15,1.69 µM
same,GI50,COLO 205,4.45 µM (inactive)
same,GI50,NCI-H522,3.85 µM (inactive)
same,GI50,786-0,1.55 µM (inactive)
same,GI50,PC-3,2.34 µM (inactive)
